In patent publication US20230115274A1, “COMPOUNDS AND COMPOSITIONS FOR TREATING CONDITIONS ASSOCIATED WITH STING ACTIVITY” (IFM Due, Inc., priority 2019, published 2023) one finds EC50 data, which are given here for 24 compounds.

The target of this assay is T1, hSTING (Homo sapiens, UniProt Q86WV6, G230A/H232R/R293Q/R71H).
T1 construct: host or cells: THP1-Dual KO-IFNAR2 cells
Kind of assay: STING reporter assay (luciferase) in THP1-Dual KO-IFNAR2 cells stimulated with 2′3′cGAMP. The class given is cell-based. To be noted: 2′3′cGAMP 15 μM, 24 h. The procedure, abridged:
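THP1-Dual KO-IFNAR2 cells (2×10E6 cells/mL) were treated with compound at 0.0017-100 μM final plus 15 μM final 2′3′cGAMP delivered with Lipofectamine 2000. After 24 h at 37° C., secreted luciferase in supernatant was read by QUANTI-Luc luminescence and EC50 values were fitted.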

T1 sequence (Q86WV6 whole entry R71H/G230A/H232R/R293Q): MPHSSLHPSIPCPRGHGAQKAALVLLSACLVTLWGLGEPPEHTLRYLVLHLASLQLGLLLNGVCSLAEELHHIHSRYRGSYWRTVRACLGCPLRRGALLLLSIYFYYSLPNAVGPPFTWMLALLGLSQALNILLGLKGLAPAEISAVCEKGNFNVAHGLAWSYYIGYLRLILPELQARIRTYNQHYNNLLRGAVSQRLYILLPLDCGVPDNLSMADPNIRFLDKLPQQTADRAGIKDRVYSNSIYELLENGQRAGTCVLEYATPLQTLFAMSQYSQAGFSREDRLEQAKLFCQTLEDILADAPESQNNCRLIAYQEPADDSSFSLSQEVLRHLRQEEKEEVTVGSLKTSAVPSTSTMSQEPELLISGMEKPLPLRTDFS

Broadly, the EC50 is the concentration that produces a half-maximal response. The compound `O=C(Nc1ccc(C2CC(F)(F)C2)c(F)c1)Nc1c[nH]c2ncc(F)cc12` [Compound 201, 1-(4-(3,3-difluorocyclobutyl)-3-fluorophenyl)-3-(5-fluoro-1H-pyrrolo[2,3-b]pyridin-3-yl)urea] gave an EC50 (class symbols) of 200 to 1000 nM.
Still for that read-out and setting: under `COc1ccc2[nH]cc(NC(=O)Nc3cnc(N4CCC(F)(F)CC4)c(F)c3)c2n1` [Compound 187, 1-(6-(4,4-difluoropiperidin-1-yl)-5-fluoropyridin-3-yl)-3-(5-methoxy-1H-pyrrolo[3,2-b]pyridin-3-yl)urea] stands 200 to 1000 nM.
As to `Cc1cc(N2CCC(F)(F)CC2)ncc1NC(=O)Nc1c[nH]c2ncc(F)cc12` [Compound 185, 1-(6-(4,4-difluoropiperidin-1-yl)-4-methylpyridin-3-yl)-3-(5-fluoro-1H-pyrrolo[2,3-b]pyridin-3-yl)urea], where the note is “numeric bounds”, the concentration giving a half-maximal response (EC50) is greater than 30000 nM.
Still for that read-out and setting: under `Cn1cc(NC(=O)Nc2ccc(C3CCC(F)(F)CC3)nc2)c2cc(F)cnc21` [Compound 127, 1-(6-(4,4-difluorocyclohexyl)pyridin-3-yl)-3-(5-fluoro-1-methyl-1H-pyrrolo[2,3-b]pyridin-3-yl)urea] stands greater than 30000 nM; under `O=C(Nc1ccc(C2CCC(F)(F)CC2)nc1)Nc1cn(C2CCNCC2)c2ncc(F)cc12` [Compound 128, 1-(6-(4,4-difluorocyclohexyl)pyridin-3-yl)-3-(5-fluoro-1-(piperidin-4-yl)-1H-pyrrolo[2,3-b]pyridin-3-yl)urea], greater than 30000 nM.
The compound `COc1cnc2[nH]cc(NC(=O)Nc3cnc(C4CCC(F)(F)CC4)c(C)c3)c2c1` [Compound 174, 1-(6-(4,4-difluorocyclohexyl)-5-methylpyridin-3-yl)-3-(5-methoxy-1H-pyrrolo[2,3-b]pyridin-3-yl)urea] came in with an EC50 (class symbols) of 1000 to 5000 nM.
The same measure, in the same setting: under `O=C(Nc1ccc(C2CCC(F)(F)CC2)nc1)Nc1c[nH]c2ncc(-c3cccc(CO)c3)cc12` [Compound 105, 1-(6-(4,4-difluorocyclohexyl)pyridin-3-yl)-3-(5-(3-(hydroxymethyl)phenyl)-1H-pyrrolo[2,3-b]pyridin-3-yl)urea] stands 5000 to 100000 nM; under `Cc1cc(NC(=O)Nc2c[nH]c3cccnc23)cnc1C1CCC(F)(F)CC1` [Compound 136, 1-(6-(4,4-difluorocyclohexyl)-5-methylpyridin-3-yl)-3-(1H-pyrrolo[3,2-b]pyridin-3-yl)urea], 5000 to 100000 nM.
`COc1ccc2[nH]cc(NC(=O)Nc3cnc(N4CCC5(CC4)CC(F)(F)C5)c(Cl)c3)c2n1` [Compound 203, 1-(5-chloro-6-(2,2-difluoro-7-azaspiro[3.5]nonan-7-yl)pyridin-3-yl)-3-(5-methoxy-1H-pyrrolo[3,2-b]pyridin-3-yl)urea] returned an EC50 (class symbols) of 200 to 1000 nM.
On the same count and under the same terms, the figure for `COc1ccc2[nH]cc(NC(=O)Nc3ccc(C4CC(F)(F)C4)c(F)c3)c2n1` [Compound 238, 1-(4-(3,3-difluorocyclobutyl)-3-fluorophenyl)-3-(5-methoxy-1H-pyrrolo[3,2-b]pyridin-3-yl)urea] is 200 to 1000 nM.
Compound `Cc1cc(NC(=O)Nc2c[nH]c3ncc(F)cc23)cnc1N1CCOCC1` [Compound 167, 1-(5-fluoro-1H-pyrrolo[2,3-b]pyridin-3-yl)-3-(5-methyl-6-morpholinopyridin-3-yl)urea] registered an EC50 (numeric bounds) greater than 30000 nM.
`N#Cc1cc(NC(=O)Nc2c[nH]c3ncc(F)cc23)ccc1C1CCC(F)(F)CC1` [Compound 195, 1-(3-cyano-4-(4,4-difluorocyclohexyl)phenyl)-3-(5-fluoro-1H-pyrrolo[2,3-b]pyridin-3-yl)urea] gave a concentration for a half-maximal effect (EC50) (class symbols) of 40 to 200 nM.
On the same count and under the same terms, under `O=C(Nc1cnc(N2CCC(F)(F)CC2)c(Cl)c1)Nc1c[nH]c2ccc(OCC(F)(F)F)nc12` [Compound 208, 1-(5-chloro-6-(4,4-difluoropiperidin-1-yl)pyridin-3-yl)-3-(5-(2,2,2-trifluoroethoxy)-1H-pyrrolo[3,2-b]pyridin-3-yl)urea] stands 200 to 1000 nM; under `COc1ccc2[nH]cc(NC(=O)Nc3cnc(C4CCC(F)(F)CC4)c(F)c3)c2n1` [Compound 229, 1-(6-(4,4-difluorocyclohexyl)-5-fluoropyridin-3-yl)-3-(5-methoxy-1H-pyrrolo[3,2-b]pyridin-3-yl)urea], 200 to 1000 nM; under `O=C(Nc1ccc(N2CCC(F)(F)CC2)nn1)Nc1c[nH]c2ncc(F)cc12` [Compound 193, 1-(6-(4,4-difluoropiperidin-1-yl)pyridazin-3-yl)-3-(5-fluoro-1H-pyrrolo[2,3-b]pyridin-3-yl)urea], 5000 to 100000 nM.
`O=C(Nc1cnc(N2CC3(C2)CC(F)(F)C3)c(Cl)c1)Nc1c[nH]c2cccnc12` [Compound 223, 1-(5-chloro-6-(6,6-difluoro-2-azaspiro[3.3]heptan-2-yl)pyridin-3-yl)-3-(1H-pyrrolo[3,2-b]pyridin-3-yl)urea] displayed an EC50 (class symbols) of 200 to 1000 nM.
Same read-out and setting: under `O=C(Nc1cnc(C2CCC(F)(F)CC2)c(F)c1)Nc1c[nH]c2ncc(F)cc12` [Compound 113, 1-(6-(4,4-difluorocyclohexyl)-5-fluoropyridin-3-yl)-3-(5-fluoro-1H-pyrrolo[2,3-b]pyridin-3-yl)urea] stands 40 to 200 nM.
The same measure, in the same setting: the figure for `O=C(Nc1cnc(N2CCC(F)(F)CC2)c(CCO)c1)Nc1c[nH]c2ncc(F)cc12` [Compound 147, 1-(6-(4,4-difluoropiperidin-1-yl)-5-(2-hydroxyethyl)pyridin-3-yl)-3-(5-fluoro-1H-pyrrolo[2,3-b]pyridin-3-yl)urea] is 5000 to 100000 nM.
In the case of `COc1ccc2[nH]cc(NC(=O)Nc3cnn(C4CCC(F)(F)CC4)c3)c2n1` [Compound 209, 1-(1-(4,4-difluorocyclohexyl)-1H-pyrazol-4-yl)-3-(5-methoxy-1H-pyrrolo[3,2-b]pyridin-3-yl)urea], the 50% effective concentration (EC50) (numeric bounds) is greater than 30000 nM.
`O=C(Nc1cnc(C2CC(F)(F)C2)c(Cl)c1)Nc1c[nH]c2ncc(F)cc12` [Compound 166, 1-(5-chloro-6-(3,3-difluorocyclobutyl)pyridin-3-yl)-3-(5-fluoro-1H-pyrrolo[2,3-b]pyridin-3-yl)urea] showed a concentration giving a half-maximal response (EC50) (class symbols) of 200 to 1000 nM.
Same read-out and setting: the figure for `O=C(Nc1cnc(N2CCC(F)(F)CC2)cn1)Nc1c[nH]c2ncc(F)cc12` [Compound 191, 1-(5-(4,4-difluoropiperidin-1-yl)pyrazin-2-yl)-3-(5-fluoro-1H-pyrrolo[2,3-b]pyridin-3-yl)urea] is 200 to 1000 nM.
On the same count and under the same terms, under `O=C(Nc1ccc(C2CCC(F)(F)CC2)nc1)Nc1cn(C(=O)c2ccccc2)c2ncc(F)cc12` [Compound 121, 1-(1-benzoyl-5-fluoro-1H-pyrrolo[2,3-b]pyridin-3-yl)-3-(6-(4,4-difluorocyclohexyl)pyridin-3-yl)urea] stands 200 to 1000 nM.
`COCCOc1ccc2[nH]cc(NC(=O)Nc3ccc(C4CCC(F)(F)CC4)nc3)c2n1` [Compound 212, 1-(6-(4,4-difluorocyclohexyl)pyridin-3-yl)-3-(5-(2-methoxyethoxy)-1H-pyrrolo[3,2-b]pyridin-3-yl)urea]: the EC50 (class symbols) was 1000 to 5000 nM.
For the setting “numeric bounds”, `Cc1cc(N2CCC(F)(F)CC2)cnc1NC(=O)Nc1c[nH]c2ncc(F)cc12` [Compound 177, 1-(5-(4,4-difluoropiperidin-1-yl)-3-methylpyridin-2-yl)-3-(5-fluoro-1H-pyrrolo[2,3-b]pyridin-3-yl)urea] displayed a 50% effective concentration (EC50) greater than 30000 nM.
